From patent publication US4595535A, “Diazacycloalkyl-1,2,4-triazolo[2,3-c][1,3]benzodiazepines useful as neuroleptic and/or antihistaminic agents” (Ciba-Geigy Corporation, priority 1984, dated 1986)
pIC50: −log10 of the molar value.

Experiments:
[1] = biological target: histamine activation of adenylate cyclase; assay: inhibition of histamine activation of adenylate cyclase in vesicles from guinea pig cerebral cortex; format: biochemical; settings: 50 micromolar histamine, 3H-cyclic AMP synthesis
Description: Finally, said antihistaminic properties can be shown in vitro, e.g., according to Chasin et al., J. Neurochem. 22, 1031 (1974). Vesicles from a cell free preparation of guinea pig cerebral cortex are preincubated with ^3 H-adenine to form endogenous ^3 H-adenosine triphosphate. The vesicles are then incubated with 50 micromolar histamine to activate ^3 H-cyclic adenosine monophosphate synthesis in the absence or presence of the test compound at a concentration between 0.01 and 100 micromolar. When said compound is active, it inhibits the histamine activation of adenylate cyclase. The IC50 represents the concentration at which histamine activation is inhibited by 50%.

[2] = tested on: avoidance behaviour in monkeys; assay: conditioned avoidance behaviour (lever press to avoid foot shock), monkeys; format: in vivo, squirrel monkeys; settings: Primates, oral, read-out: oral dose that disrupts avoidance behaviour (decreases avoidance responses)
Description: (§1) Each lever press postpones the shock for 30 seconds. Whenever the animal fails to press the lever once within said period, brief (0.5 sec.) shocks are delivered at 15 second intervals until the animal again presses the lever. Under control conditions the animals press the lever at a moderately steady rate and seldom receive more than five or six shocks during a 25-minute (rats) and up to 4-hour experimental session. Said compounds evaluated for neuroleptic activity, are administered to the animals 30, 90, 210 minutes prior to the experimental session and block the learned conditioned avoidance behaviour, manifested by a decrease in avoidance responding with a marked increase in shocks taken by the animal. Both the avoidance responses and failures (shocks received) are recorded separately for evaluation.
(§2) Indicative of the antipsychotic utility of the compounds of this invention, e.g. the compound of example 1, namely 2-methyl-5-(4-methyl-1-piperazinyl)-11H-1,2,4-triazolo[2,3-c][1,3]benzodiazepine maleate, disrupts avoidance behaviour, e.g. decreases avoidance responses in rats and monkeys at an oral dose of about 1.0 mg/kg or lower.

[3] = tested on: avoidance behaviour in rats; assay: conditioned avoidance behaviour (lever press to avoid foot shock), rats; format: in vivo; settings: Rattus norvegicus, oral, read-out: oral dose that disrupts avoidance behaviour (decreases avoidance responses)
Description: as §1, §2

[4] = tested on: extrapyramidal side effects, e.g. dyskinesias and dystonias; assay: extrapyramidal side effects in the monkey; format: in vivo; settings: at effective antipsychotic doses

SMILES: Cc1nc2n(n1)C(N1CCN(C)CC1)=Nc1ccccc1C2.O=C(O)/C=C\C(=O)O [Example 1, 2-methyl-5-(4-methyl-1-piperazinyl)-11H-1,2,4-triazolo[2,3-c][1,3]-benzodiazepine monomaleate]
- pIC50 [1]: ~6.52
- minimal effective dose [2]: ≤ 1 mg/kg
- minimal effective dose [3]: ≤ 1 mg/kg
- extrapyramidal side effects, e.g. dyskinesias and dystonias [4]: essentially free of extrapyramidal side effects
